pEC50: −log10 of the molar value.
Each compound was assayed against T1, acetylcholine muscarinic M1 receptor (hM1) (Homo sapiens, UniProt P11229) (assay: muscarinic FLIPR assay: intracellular calcium in CHOnfat/hM1 cells, potentiation of EC20 acetylcholine). Details: Table 1, EC20 acetylcholine (3 nM final), read-out: H Pot.
T1 construct: expressed in transfected cells; host or cells: CHOnfat cells (CHO, NFAT reporter background), Geneticin-selected; b186 also calls them CHOK1/hM1
T1 sequence (P11229 1-460): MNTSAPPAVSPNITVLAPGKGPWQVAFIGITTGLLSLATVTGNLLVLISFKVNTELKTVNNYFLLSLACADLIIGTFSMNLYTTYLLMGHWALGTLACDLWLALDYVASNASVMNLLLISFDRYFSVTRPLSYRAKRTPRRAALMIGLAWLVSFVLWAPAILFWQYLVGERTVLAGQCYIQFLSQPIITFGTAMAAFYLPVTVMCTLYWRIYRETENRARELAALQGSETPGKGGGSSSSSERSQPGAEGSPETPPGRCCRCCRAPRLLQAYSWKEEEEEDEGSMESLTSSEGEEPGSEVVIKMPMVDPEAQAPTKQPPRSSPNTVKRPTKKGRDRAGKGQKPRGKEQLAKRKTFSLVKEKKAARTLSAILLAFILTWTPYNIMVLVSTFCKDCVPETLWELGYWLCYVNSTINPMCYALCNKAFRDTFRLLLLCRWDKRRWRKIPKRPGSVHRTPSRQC
Format: cell-based
Procedure: The assay studies the effect of one or several concentrations of test compounds on basal or acetylcholine-stimulated Ca^2+ levels using FLIPR.
Compounds are prepared and subjected to a preincubation period of 4 min. Thereafter, a single EC20 concentration of acetylcholine is added to each well (3 nM final). The intracellular Ca^2+ level of each sample is measured and compared to an acetylcholine control to determine any modulatory activity.
Cells: CHOnfat/hM1, hM2, hM3 or hM4 cells are plated 24 hr before the assay at a density of 18,000 cells/well (100 μL) in a 384 well plate. CHOnfat/hM1 and CHOnfat/hM3 Growth Medium: 90% DMEM (Hi Glucose); 10% HI FBS; 2 mM L-glutamine; 0.1 mM NEAA; Pen-Strep; and 1 mg/ml Geneticin, are added. For M2Gqi5CHOnfat and M4Gqi5CHOnfat cells, an additional 600 ug/ml hygromycin is added.
Equipment: 384 well plate, 120 μL addition plate; 96-well Whatman 2 ml Uniplate Incubator, 37° C., 5% CO2; Skatron EMBLA-384 Plate Washer; Multimek Pipetting System; Genesis Freedom 200 System; Mosquito System; Temo Nanolitre Pipetting System; and FLIPR^384 Fluorometric Imaging Plate Reader System are used.
Buffers. Assay Buffer: Hanks Balanced Salt Solution, with 20 mM Hepes, 2.5 mM Probenecid (Sigma P-8761) first dissolved in 1 N NaOH, 1% Bovine Serum Albumin (Sigma A-9647). Dye Loading Buffer: Assay Buffer plus 1% Fetal Bovine Serum and Fluo-4AM/Pluronic Acid Mixture. 2 mM Fluo-4AM ester stock in DMSO (Molecular Probes F-14202) Concentration of 2 μM in buffer for a final concentration of 1 μM in Assay. 20% Pluronic Acid Solution stock, with concentration of 0.04% in Buffer, 0.02% in Assay.
65 μL of 2 mM Fluo-4AM are mixed with 130 μL of 20% Pluronic Acid. The resulting solution and 650 μL FBS is added to the assay buffer for a total volume of 65 mL. Positive Controls: 4-Br-A23187: 10 mM in DMSO; final concentration 10 μM. Acetylcholine: 10 mM in water, working stock at both 20 μM and 30 μM in assay buffer, final concentration of 10 μM. This is used to check the maximum stimulation of the CHOK1/hM1 cells. 20 μM (2×) acetylcholine is added in the preincubation part of the assay, and the 30 μM (3×) stock is added in the second part. (EC20) Acetylcholine: 10 mM in water, working stock of 9 nM (3×), and final concentration in assay is 3 nM. This is used after the preincubation with test compounds. Addition of the EC20 Acetylcholine to each well with a test compound will ascertain any modulator activity. 24 wells contain 3 nM Acetylcholine alone as a control.
Screening Plate Compounds are titrated in 96-well plates (columns 2-11), 100% DMSO, started at a concentration of 15 mM (150× stock concentration), and 3-fold serial dilutions using Genesis Freedom200 System. Four 96-well plates are combined into a 384-well plate using Mosquito Nanolitre Pipetting System by transferring 1 μl of serial diluted compounds to each well, and 1 mM acetylcholine (100× stock concentration) were added as a control. Using Temo, 49 μl assay buffer is added to each well of the 384-well plate right before assay.
In a 96-well Whatman 2 ml Uniplate, 9 nM Acetylcholine (3×) is pipetted into wells corresponding to the screening compounds, and into control wells. The 30 μM acetylcholine control (3×) is added into control wells, and the 3× agonist plate is transferred into a 384 well plate.
Cells are washed three times with 100 μL of buffer, leaving 30 μL of buffer in each well. Using Multimek, 30 μL of Dye Loading Buffer is added into each well and incubated at 37° C., 5% CO2 for up to one hr.
After 60 min, the cells are washed three times with 100 μL of buffer, leaving 30 μL of buffer in each well. The cell plate, screening plate, and agonist addition plates are placed on the platform in the FLIPR and the door closed. A signal test to check background fluorescence and basal fluorescence signal is performed. Laser intensity is adjusted if necessary. […]

Structure (SMILES)	pEC50
O=C(N[C@H]1CCCC[C@@H]1O)c1cc(Cc2ccc(-c3ccc(F)nc3)nc2)c2c(n1)CCCC2 [Compound 10]	7.44
O=C(N[C@H]1CCOC[C@@H]1O)c1cc(Cc2cnc3ccccc3c2)c2c(n1)CCCC2 [Compound 15]	7.96
O=C(N[C@H]1CCOC[C@@H]1O)c1cc(Cc2ccc(-c3cccnc3)nc2)c2c(n1)CCCC2 [Compound 16]	7.96
O=C(N[C@H]1CCOC[C@@H]1O)c1cc(Cc2ccc(-c3ccc(F)nc3)nc2)c2c(n1)CCCC2 [Compound 17]	7.82
Cc1ccc(-c2ccc(Cc3cc(C(=O)N[C@H]4CCOC[C@@H]4O)nc4c3CCCC4)cn2)cn1 [Compound 20]	8.15
Cc1cncc(-c2ccc(Cc3cc(C(=O)N[C@H]4CCOC[C@@H]4O)nc4c3CCCC4)cn2)c1 [Compound 21]	8.22

Second part, the compound after the results:

pEC50	Structure (SMILES)
6.89	O=C(N[C@H]1CCCC[C@@H]1O)c1cc(Cc2ccc(Cl)nc2)c2c(n1)CCCC2 [Compound 7]
7.74	COc1ccc(-c2ccc(Cc3cc(C(=O)N[C@H]4CCCC[C@@H]4O)nc4c3CCCC4)cn2)cn1 [Compound 8]
7.82	O=C(N[C@H]1CCCC[C@@H]1O)c1cc(Cc2ccc(-c3cccnc3)nc2)c2c(n1)CCCC2 [Compound 9]
7.59	O=C(N[C@H]1CCCC[C@@H]1O)c1cc(Cc2ccc(-c3ccccc3)nc2)c2c(n1)CCCC2 [Compound 11]
6.92	COc1cc(Cc2cc(C(=O)N[C@H]3CCOC[C@@H]3O)nc3c2CCCC3)ccn1 [Compound 12]
7.10	O=C(NC1CCOCC1O)c1cc(Cc2ccn3ccnc3c2)c2c(n1)CCCC2 (stereo not drawn) [Compound 13]
7.48	O=C(N[C@H]1CCOC[C@@H]1O)c1cc(Cc2ccnc3ccccc23)c2c(n1)CCCC2 [Compound 14]
8.15	COc1cncc(-c2ccc(Cc3cc(C(=O)N[C@H]4CCOC[C@@H]4O)nc4c3CCCC4)cn2)c1 [Compound 18]
7.64	O=C(N[C@H]1CCOC[C@@H]1O)c1cc(Cc2ccc(-c3cncc(F)c3)nc2)c2c(n1)CCCC2 [Compound 19]
7.77	COc1ccc(-c2ccc(Cc3cc(C(=O)N[C@H]4CCOC[C@@H]4O)nc4c3CCCC4)cn2)cn1 [Compound 22]
6.21	CC(C)(C)OC(=O)N1CC=C(Cc2cc(C(=O)N[C@H]3CCOC[C@@H]3O)nc3c2CCCC3)CC1 [Compound 23]
5.65	CC(=O)N1CCC(Cc2cc(C(=O)N[C@H]3CCOC[C@@H]3O)nc3c2CCCC3)CC1 [Compound 24]

Same assay, conditions: Table 2, EC20 acetylcholine (3 nM final), read-out: M1 IP (inflection point)

pEC50	Structure (SMILES)
6.99	O=C(N[C@H]1CCOC[C@@H]1O)c1cc(Cc2ccc(Cl)nc2)c2c(n1)CCCC2 [Example 1, 1,5-Anhydro-3[({4-[(6-chloropyridin-3-yl)methyl]-5,6,7,8-tetrahydroquinolin-2-yl}carbonyl)amino]-2,3-dideoxy-L-threo-pentitol]
7.06	CSc1ccc(Cc2cc(C(=O)N[C@H]3CCCC[C@@H]3O)nc3c2CCCC3)cn1 [Example 2, N-[(1S,2S)-2-Hydroxycyclohexyl]-4-{[6-(methylsulfanyl)pyridin-3-yl]methyl}-5,6,7,8-tetrahydroquinoline-2-carboxamide]
7.01	COc1ccc(Cc2cc(C(=O)N[C@H]3CCOC[C@@H]3O)nc3c2CCCC3)cn1 [Example 3, 1,5-Anhydro-2,3-dideoxy-3-[({4-[(6-methoxypyridin-3-yl)methyl]-5,6,7,8-tetrahydroquinolin-2-yl}carbonyl)amino]-L-threo-pentitol]
6.18	CC(=O)N1CC=C(Cc2cc(C(=O)N[C@H]3CCOC[C@@H]3O)nc3c2CCCC3)CC1 [Example 4, 3-[{(4-[(1-Acetyl-1,2,3,6-tetrahydropyridin-4-yl)methyl]-5,6,7,8-tetrahydroquinolin-2-yl}carbonyl)amino]-1,5-anhydro-2,3-dideoxy-L-threo-pentitol]
8.40	Cn1cc(-c2ccc(Cc3cc(C(=O)N[C@H]4CCOC[C@@H]4O)nc4c3CCCC4)cn2)cn1 [Example 5, 1,5-Anhydro-2,3-dideoxy-3-{[(4-{[6-(1-methyl-1H-pyrazol-4-yl)pyridine-3-yl]methyl}-5,6,7,8-tetrahydroquinolin-2-yl)carbonyl}amino]-L-threo-pentitol]
6.94	O=C(N[C@H]1CCOC[C@@H]1O)c1cc(Cc2ccc(-c3cnccn3)nc2)c2c(n1)CCCC2 [Example 6, 1,5-Anhydro-2,3-dideoxy-3-{[(4-{[6-(pyrazin-2-yl)pyridine-3-yl]methyl}-5,6,7,8-tetrahydroquinolin-2-yl)carbonyl]amino}-L-threo-pentitol]

Source: patent publication US8815902B2, “Tetrahydroquinoline amide M1 receptor positive allosteric modulators” (Merck Sharp & Dohme Corp., priority 2010, dated 2014)
